Measurements: publication PMC9499324, “Glycyrrhizic Acid Derivatives Bearing Amino Acid Residues in the Carbohydrate Part as Dengue Virus E Protein Inhibitors: Synthesis and Antiviral Activity” (International Journal of Molecular Sciences, 2022)

Experiments:
[1] = MTT cytotoxicity assay in A549 cells; assay type: cell-based; conditions: human
Description: Vero E6 cells and A549 cells (5 × 10^3 cells/well) were treated with the serial dilution of GL conjugates at 0, 0.1, 10, 20, and 50 μM for examining the in vitro cytotoxicity of tested compounds. After 96-h incubation at 37 °C, the cells were incubated with MTT (3-(4,5-Dimethylthiazol-2-yl)-2,5-Diphenyltetrazolium Bromide) solution for another 4 h incubation, mixed with DMSO for 15 min after the removal of media, and then measured the absorbance at 570 nm. The viability (%) of treated cells was quantified according to the reduced ability of MTT. Finally, the concentration for reducing 50% cell viability (the 50% cytotoxic concentration, CC50) was determined by regression analysis of the concentration–response survival curve.

[2] = tested on: DENV2; assay: DENV2 infectivity inhibition (anti-NS4B immunofluorescence) in A549 cells; assay type: cell-based, Dengue virus type 2; conditions: Dengue virus
[3] = tested on: DENV2; assay: Time-of-addition/compound removal assay with DENV2 in Vero E6 cells; assay type: cell-based, Dengue virus type 2; conditions: for IC50: Dengue virus, Vero C1008, attachment mode, 4 °C, DENV2, Vero E6 cells; for Stage of DENV2 replication affected (attachment, entry, post-entry modes): time-of-addition/removal, Vero E6 cells
Description: Figure 5 Time-of-addition and removal assay for analyzing antiviral action of compounds 3 (A), 6 (B), 11 (C), and 21 (D) in Vero E6 cells. In the attachment mode, cells were pre-cooled and incubated with fresh-prepared mixtures of active compounds with DENV2 at 4 °C for 1 h. After the removal of the mixtures, the cells were kept at 37 °C for 96 h (a cycle of viral replication) and then were performed by immunofluorescent assay plus DAPI staining. In entry and post-entry modes, cells were infected with DENV2 and treated with the compounds simultaneously (the entry stage) or 1-h post-infection (post-entry stage). After a 1 h incubation period, the virus/compound mixture was removed; the cell monolayer was washed with PBS and cultured for 96 h and then subjected to immunofluorescence staining and DAPI. Finally, the inhibition percentage of DENV2 infectivity was calculated as follows: 1-(percentage of NS4B positivity in treated cells/percentage of NS4B positivity in mock-treated cells). *** p < 0.001 compared with the other two antiviral action modes.
The time-of-addition assays consisted of three modes including attachment treatment/removal, entry-treatment/removal, and post-entry treatment/removal modes. In the attachment-treatment/removal mode, Vero E6 cells monolayer in 6-well plate was placed at 4 °C for 2 h and incubated with the fresh-prepared mixture of DENV-2 (MOI = 0.005) with the active compound at indicated concentrations for 2 h at 4 °C, and then washed with phosphate-buffered saline (PBS). In the entry-treatment/removal mode, Vero E6 cells were simultaneously treated with the active compound and infected DENV-2 (MOI = 0.005) in 6-well plates, incubated for 1 h at 37 °C, and then washed with PBS. In the post-entry treatment/removal mode, the cells were infected with DENV-2 for 1 h at 37 °C, treated with the active compounds at indicated concentrations for 1 h at 37 °C, respectively, and then washed by PBS. After active compound removal (washout), the cells were incubated at 37 °C for 96 h, and then were analyzed by immunofluorescent and DAPI staining assay for determining the residual DENV-2 infectivity, as described above. The inhibitory activity of the transient treatment by active compounds on attachment, entry, and post-entry stages of DENV replication in vitro was determined based on the residual infectivity.

`CCOC(=O)[C@H](Cc1ccccc1)NC(=O)[C@H]1O[C@@H](O[C@H]2[C@H](OC3CC[C@@]4(C)C(CC[C@]5(C)C4C(=O)C=C4C6C[C@@](C)(C(=O)O)CC[C@]6(C)CC[C@]45C)C3(C)C)O[C@H](C(=O)N[C@@H](Cc3ccccc3)C(=O)OCC)[C@@H](O)[C@@H]2O)[C@H](O)[C@@H](O)[C@@H]1O` (stereo partly drawn) [Compound 11, 3-O-{2-O-[N-(β-D-Glucopyranosyluronoyl)-L-phenylalanineethyl ester]-N-(β-D-Glucopyranosyluronoyl)-L-phenylalanineethyl ester}-(3β, 20β)-11-oxo-30-noroleane-12-ene-30-oic Acid] gave a CC50 at 96 h [1] greater than 100000 nM, an IC50 [2] of 1560 ± 490 nM and an IC50 [3] of 180 nM. For the same compound, the “Stage of DENV2 replication affected (attachment, entry, post-entry modes)” value [3] was “mostly affected the virus binding stage to the cell surface in the attachment mode”.

Compound `COC(=O)[C@H](NC(=O)[C@H]1O[C@@H](O[C@H]2[C@H](OC3CC[C@@]4(C)C(CC[C@]5(C)C4C(=O)C=C4C6C[C@@](C)(C(=O)O)CC[C@]6(C)CC[C@]45C)C3(C)C)O[C@H](C(=O)N[C@@H](C(=O)OC)C(C)C)[C@@H](O)[C@@H]2O)[C@H](O)[C@@H](O)[C@@H]1O)C(C)C` (stereo partly drawn) [Compound 3, 3-O-{2-O-[N-(β-D-Glucopyranosyluronoyl)-D-valinemethyl ester]-N-(β-D-glucopyranosyluronoyl)-D-valinemethyl ester}-(3β, 20β)-11-oxo-30-noroleane-12-ene-30-oic Acid] has a CC50 at 96 h [1] greater than 100000 nM, an IC50 [2] of 120 ± 28 nM and an IC50 [3] of 1860 nM. For the same compound, the “Stage of DENV2 replication affected (attachment, entry, post-entry modes)” value [3] was “mostly affected the virus binding stage to the cell surface in the attachment mode”.
